Assay results taken from PMC6704710, “Preclinical evaluation of 3D185, a novel potent inhibitor of FGFR1/2/3 and CSF-1R, in FGFR-dependent and macrophage-dominant cancer models” (Journal of Experimental & Clinical Cancer Research : CR, 2019).

How the values were obtained:
Experiment in all cases: Eurofins kinase panel
Type in all cases: biochemical
Details in all cases: read-out: Inhibition rate (%)
[1] = target: T1, MARK4(h) (Homo sapiens, UniProt Q96L34)
T1 construct: purchased Eurofins (KinaseProfiler)
T1 sequence (Q96L34 1-752): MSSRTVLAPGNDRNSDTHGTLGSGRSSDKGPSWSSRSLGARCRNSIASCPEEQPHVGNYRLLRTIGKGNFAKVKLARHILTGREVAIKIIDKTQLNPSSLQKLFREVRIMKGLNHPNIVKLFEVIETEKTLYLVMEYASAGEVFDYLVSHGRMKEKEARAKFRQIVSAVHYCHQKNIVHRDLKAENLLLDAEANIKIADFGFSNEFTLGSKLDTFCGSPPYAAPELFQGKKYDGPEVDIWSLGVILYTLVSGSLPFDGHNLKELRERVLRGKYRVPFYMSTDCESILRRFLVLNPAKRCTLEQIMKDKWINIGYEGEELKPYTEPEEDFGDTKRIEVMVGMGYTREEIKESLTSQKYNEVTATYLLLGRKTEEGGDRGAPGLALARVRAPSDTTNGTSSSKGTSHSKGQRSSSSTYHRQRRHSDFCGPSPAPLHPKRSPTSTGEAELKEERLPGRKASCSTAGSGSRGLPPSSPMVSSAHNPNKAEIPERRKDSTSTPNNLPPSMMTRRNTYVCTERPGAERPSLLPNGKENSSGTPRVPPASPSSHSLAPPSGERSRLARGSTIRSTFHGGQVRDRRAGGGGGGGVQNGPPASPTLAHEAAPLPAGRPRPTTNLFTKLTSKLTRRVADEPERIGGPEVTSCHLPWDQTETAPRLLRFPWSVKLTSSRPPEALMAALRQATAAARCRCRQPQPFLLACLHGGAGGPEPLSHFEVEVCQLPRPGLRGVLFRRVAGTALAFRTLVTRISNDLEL

[2] = target: T2, Rsk4(h) (Homo sapiens, UniProt Q9UK32)
T2 construct: purchased Eurofins (KinaseProfiler)
T2 sequence (Q9UK32 whole entry): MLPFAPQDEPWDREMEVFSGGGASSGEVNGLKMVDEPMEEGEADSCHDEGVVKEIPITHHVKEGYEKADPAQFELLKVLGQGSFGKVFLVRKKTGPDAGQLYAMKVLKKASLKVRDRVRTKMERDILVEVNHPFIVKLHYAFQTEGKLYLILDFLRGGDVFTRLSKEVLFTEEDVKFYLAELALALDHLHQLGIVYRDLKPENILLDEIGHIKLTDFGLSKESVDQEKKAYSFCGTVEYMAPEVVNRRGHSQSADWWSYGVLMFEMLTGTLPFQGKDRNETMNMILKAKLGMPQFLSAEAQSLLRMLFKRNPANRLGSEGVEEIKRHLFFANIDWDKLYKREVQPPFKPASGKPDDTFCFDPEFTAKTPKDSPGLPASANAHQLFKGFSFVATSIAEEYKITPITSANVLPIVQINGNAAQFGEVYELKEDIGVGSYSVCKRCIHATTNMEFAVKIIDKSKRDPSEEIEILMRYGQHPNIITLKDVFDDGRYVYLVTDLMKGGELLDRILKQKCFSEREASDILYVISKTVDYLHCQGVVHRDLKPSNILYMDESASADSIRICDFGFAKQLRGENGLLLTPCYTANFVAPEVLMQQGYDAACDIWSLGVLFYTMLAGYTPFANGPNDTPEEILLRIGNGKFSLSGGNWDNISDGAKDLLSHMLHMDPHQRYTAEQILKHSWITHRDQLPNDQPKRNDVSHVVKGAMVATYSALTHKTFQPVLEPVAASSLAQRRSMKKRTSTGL

[3] = target: T3, SRPK1(h) (Homo sapiens, UniProt Q96SB4)
T3 construct: purchased Eurofins (KinaseProfiler)
T3 sequence (Q96SB4 whole entry): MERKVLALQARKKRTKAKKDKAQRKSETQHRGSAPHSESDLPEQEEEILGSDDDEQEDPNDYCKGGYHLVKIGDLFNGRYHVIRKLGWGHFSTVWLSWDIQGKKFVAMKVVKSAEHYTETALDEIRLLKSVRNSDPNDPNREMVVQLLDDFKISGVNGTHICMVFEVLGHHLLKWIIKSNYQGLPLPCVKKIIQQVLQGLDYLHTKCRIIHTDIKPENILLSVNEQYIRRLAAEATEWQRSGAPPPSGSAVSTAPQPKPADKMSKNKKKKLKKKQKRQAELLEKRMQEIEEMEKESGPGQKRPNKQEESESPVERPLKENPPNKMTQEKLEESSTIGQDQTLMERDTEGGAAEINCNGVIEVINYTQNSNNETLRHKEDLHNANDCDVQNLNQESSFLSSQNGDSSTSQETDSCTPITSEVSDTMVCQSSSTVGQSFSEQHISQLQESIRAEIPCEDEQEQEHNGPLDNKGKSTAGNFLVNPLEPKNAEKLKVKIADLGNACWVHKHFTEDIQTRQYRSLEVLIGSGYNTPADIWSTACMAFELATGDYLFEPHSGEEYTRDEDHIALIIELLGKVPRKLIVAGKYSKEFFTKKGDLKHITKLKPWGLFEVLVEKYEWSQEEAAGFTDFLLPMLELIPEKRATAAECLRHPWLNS

[4] = target: T4, TAO2(h) (Homo sapiens, UniProt Q9UL54)
T4 construct: purchased Eurofins (KinaseProfiler)
T4 sequence (Q9UL54 1-1235): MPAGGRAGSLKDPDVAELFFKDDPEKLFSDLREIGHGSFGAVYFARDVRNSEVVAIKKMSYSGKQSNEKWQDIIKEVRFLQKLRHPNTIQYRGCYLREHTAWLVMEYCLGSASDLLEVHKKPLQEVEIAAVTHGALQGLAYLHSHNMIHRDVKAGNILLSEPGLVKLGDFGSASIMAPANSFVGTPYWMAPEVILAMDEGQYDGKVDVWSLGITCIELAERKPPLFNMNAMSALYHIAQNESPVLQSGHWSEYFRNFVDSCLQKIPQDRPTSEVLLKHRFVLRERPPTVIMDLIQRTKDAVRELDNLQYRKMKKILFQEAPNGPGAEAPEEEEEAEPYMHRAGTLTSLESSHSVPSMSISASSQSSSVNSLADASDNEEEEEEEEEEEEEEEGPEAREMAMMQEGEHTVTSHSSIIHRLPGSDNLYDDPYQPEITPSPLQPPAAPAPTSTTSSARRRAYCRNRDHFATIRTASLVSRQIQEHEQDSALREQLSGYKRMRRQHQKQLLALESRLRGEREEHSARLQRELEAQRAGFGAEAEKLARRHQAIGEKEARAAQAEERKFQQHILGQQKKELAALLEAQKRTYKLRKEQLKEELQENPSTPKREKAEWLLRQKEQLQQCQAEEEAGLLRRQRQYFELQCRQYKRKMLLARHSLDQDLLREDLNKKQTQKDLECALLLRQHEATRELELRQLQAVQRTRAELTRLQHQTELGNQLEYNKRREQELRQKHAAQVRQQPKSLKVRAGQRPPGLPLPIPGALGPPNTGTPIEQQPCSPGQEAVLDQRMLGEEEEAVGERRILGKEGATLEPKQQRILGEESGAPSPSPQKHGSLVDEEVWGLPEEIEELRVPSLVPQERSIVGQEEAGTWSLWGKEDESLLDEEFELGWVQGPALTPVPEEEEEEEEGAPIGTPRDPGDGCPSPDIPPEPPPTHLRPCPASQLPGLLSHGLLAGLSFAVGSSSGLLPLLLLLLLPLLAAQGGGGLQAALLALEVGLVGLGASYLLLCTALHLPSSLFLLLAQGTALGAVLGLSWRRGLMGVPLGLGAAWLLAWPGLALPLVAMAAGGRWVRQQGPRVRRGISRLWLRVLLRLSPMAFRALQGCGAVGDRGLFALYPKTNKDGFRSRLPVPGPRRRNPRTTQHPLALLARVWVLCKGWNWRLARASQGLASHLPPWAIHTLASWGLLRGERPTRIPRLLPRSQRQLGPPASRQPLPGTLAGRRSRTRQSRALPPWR

[5] = target: T5, Wee1(h) (Homo sapiens, UniProt P30291)
T5 construct: purchased Eurofins (KinaseProfiler)
T5 sequence (P30291 whole entry): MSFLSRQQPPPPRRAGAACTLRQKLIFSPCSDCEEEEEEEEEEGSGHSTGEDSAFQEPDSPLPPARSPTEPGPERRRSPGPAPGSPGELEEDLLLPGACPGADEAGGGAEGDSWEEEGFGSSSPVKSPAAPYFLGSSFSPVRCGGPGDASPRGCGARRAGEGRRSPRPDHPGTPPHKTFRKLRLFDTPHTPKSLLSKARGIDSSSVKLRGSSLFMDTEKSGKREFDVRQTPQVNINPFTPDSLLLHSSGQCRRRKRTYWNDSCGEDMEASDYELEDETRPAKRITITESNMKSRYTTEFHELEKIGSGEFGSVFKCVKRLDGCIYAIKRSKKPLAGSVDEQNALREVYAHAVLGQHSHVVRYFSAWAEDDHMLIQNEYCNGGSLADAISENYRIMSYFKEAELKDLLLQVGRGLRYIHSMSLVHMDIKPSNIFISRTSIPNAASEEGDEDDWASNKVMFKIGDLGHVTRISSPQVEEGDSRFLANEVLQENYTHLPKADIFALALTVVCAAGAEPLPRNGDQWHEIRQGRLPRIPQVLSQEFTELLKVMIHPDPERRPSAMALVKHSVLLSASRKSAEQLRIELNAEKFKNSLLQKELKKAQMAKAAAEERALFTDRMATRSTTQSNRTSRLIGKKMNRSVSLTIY

## COc1cc(OC)c(Cl)c(-c2ccc3c(NC(=O)c4ccc(N5CCNC(C)(C)C5)cc4)n[nH]c3n2)c1Cl [3D185]
[1]; 10 nM
  inhibition at 0.01 µM: 3%
[1]; 100 nM
  inhibition at 0.1 µM: 5%
[1]; 1000 nM
  inhibition at 1 µM: -2%
[2]; 10 nM
  inhibition at 0.01 µM: 0%
[2]; 100 nM
  inhibition at 0.1 µM: 6%
[2]; 1000 nM
  inhibition at 1 µM: 19%
[3]; 10 nM
  inhibition at 0.01 µM: 13%
[3]; 100 nM
  inhibition at 0.1 µM: 9%
[3]; 1000 nM
  inhibition at 1 µM: 12%
[4]; 10 nM
  inhibition at 0.01 µM: 12%
[4]; 100 nM
  inhibition at 0.1 µM: 28%
[4]; 1000 nM
  inhibition at 1 µM: 66%
[5]; 10 nM
  inhibition at 0.01 µM: -5%
[5]; 100 nM
  inhibition at 0.1 µM: -16%
[5]; 1000 nM
  inhibition at 1 µM: 6%
